Results on 19 molecules are retold here after US20110230536A1, “PHENYLPYRAZOLE INHIBITORS OF STORE OPERATED CALCIUM RELEASE” (CalciMedica, Inc., priority 2008, published 2011).

Where only a bound is given, the exact number is not on record here.

For one assay, the system named is Jurkat cells and colon cancer cells.
Assay: not given
As to conditions: cited from earlier work.
Turning to `Cc1nnsc1C(=O)Nc1ccc(-n2nc(C(F)(F)F)cc2C(F)(F)F)cc1` [BTP-2], the “inhibition of SOCE” value is recorded as “inhibits”.

For the next assay the test system is unchanged.
Assay: not given
The conditions noted are these: cited from earlier work. This is another data set of the same source.
As for `Cc1nnsc1C(=O)Nc1ccc(-n2nc(C(F)(F)F)cc2C(F)(F)F)cc1` [BTP-2], the inhibition of proliferation result is “inhibits”.

The target of the next assay is STIM1 and Orai1 in HEK293 cells (Homo sapiens, UniProt Q96D31).
Sequence of STIM1 and Orai1 in HEK293 cells (Q96D31 whole entry): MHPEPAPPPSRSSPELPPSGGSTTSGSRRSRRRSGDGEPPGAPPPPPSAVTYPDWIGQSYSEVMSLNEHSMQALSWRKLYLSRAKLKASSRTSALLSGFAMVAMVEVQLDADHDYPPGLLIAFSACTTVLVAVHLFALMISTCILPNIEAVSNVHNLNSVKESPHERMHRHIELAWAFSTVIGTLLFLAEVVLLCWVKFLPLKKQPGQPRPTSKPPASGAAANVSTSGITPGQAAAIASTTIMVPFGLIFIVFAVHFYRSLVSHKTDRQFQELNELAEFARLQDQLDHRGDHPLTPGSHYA
Assay: not given
As to conditions: HEK293 cells coexpressing STIM1 and Orai1; cited from earlier work.
For the molecule `NCCOB(c1ccccc1)c1ccccc1` [2-aminoethoxydiphenylborate], the “block of store-dependent Ca2+ entry” value is “completely blocked”.

A further assay relates to JR251 or RBL cells. Description: Fluorescence-based assay of store-operated calcium entry (JR251 or RBL cells). The conditions noted are these: in either JR251 or RBL cells, or both. The assay is classed as cell-based. On the procedure:
Fluorescence-based assays are used for screening the compounds described herein, such as compounds of Formulas (I) and (II) which modulate intracellular calcium. […]
B. Fluorescence-based Assay of Store-Operated Calcium Entry in RBL-2H3 Cells.
RBL-2H3 cells are obtained from ATCC and maintained in complete medium with 10% FBS at 37° C./6% CO2.
The day prior to performing the assay, RBL-2H3 cells are plated in 50 μL of complete medium in a 384 well plate. Cells are grown at 37° C./6% CO2 overnight and grow to 50-60% confluence by the next day. On the assay day, 1.5 μM Fluo-4-AM dye (Invitrogen) in complete medium is added and incubated for 1 hour at RT. Cells are washed twice in Ca^2+-free HBSS buffer and 35 μL Ca^2+-free HBSS buffer is added to each well. 10 μL of a test compound prepared in a Ca^2+-free HBSS solution at 4.5× of the desired concentration is added to a well and incubated for 5 minutes at RT. 10 μL of thapsigargin prepared in a Ca^2+-free HBSS solution at 5.5× of the desired concentration (5.5 uM) is added to each well and incubated for an additional 25 minutes. The initial baseline fluorescence signal is measured with a FLIPR^384 (Molecular Devices) plate reader. 5 μL of 12× calcium in HBSS (12 mM) is added and changes in cellular fluorescence are measured with the FLIPR^384 plate reader. In each well, the change in the fluorescent signal as a function of time due to calcium entry into the cell is determined by calculating the difference between the fluorescent signal measured 7 seconds after calcium addition and the initial baseline fluorescence signal at time zero (t=0). This parameter is designated Upslope. The IC50 value is calculated as the concentration at which 50% of the Upslope is inhibited. […]
Turning to `Cc1cc(C(F)(F)F)n(-c2ccc(C(=O)Nc3ccccc3Cl)cc2N)n1` [3-amino-N-(2-chlorophenyl)-4-(3-methyl-5-(trifluoromethyl)-1H-pyrazol-1-yl)benzamide], the IC50 – broadly, the concentration at which inhibition is half-maximal – is < 10 µM.

For the molecule `Cc1cc(C(F)(F)F)nn1-c1ccc(C(=O)Nc2ccc(Cl)cc2)cc1N` [3-amino-N-(4-chlorophenyl)-4-(5-methyl-3-(trifluoromethyl)-1H-pyrazol-1-yl)benzamide], the IC50 was < 10 µM.

Regarding `COc1cc(C(=O)Nc2ccccc2Cl)ccc1-n1nc(C(F)(F)F)cc1C` [N-(2-chlorophenyl)-3-methoxy-4-(5-methyl-3-(trifluoromethyl)-1H-pyrazol-1-yl)benzamide], the IC50 was < 10 µM.

`Cc1cc(-c2ccccc2)nn1-c1ccc(NC(=O)c2cccs2)cc1[N+](=O)[O-]` [N-(4-(5-methyl-3-phenyl-1H-pyrazol-1-yl)-3-nitrophenyl)thiophene-2-carboxamide]: the IC50 is < 10 µM.

Turning to `Cc1cc(C(F)(F)F)nn1-c1ccc(C(=O)Nc2ccccc2Cl)cc1N` [3-amino-N-(2-chlorophenyl)-4-(5-methyl-3-(trifluoromethyl)-1H-pyrazol-1-yl)benzamide], the half-maximal inhibitory concentration (IC50) is < 10 µM.

Take `COc1ccc(C(=O)Nc2ccc(-n3nc(C(F)(F)F)cc3C)c([N+](=O)[O-])c2)cc1` [4-methoxy-N-(4-(5-methyl-3-(trifluoromethyl)-1H-pyrazol-1-yl)-3-nitrophenyl)benzamide]: the IC50 is < 10 µM.

As for `COc1cc(C(=O)Nc2ccc(Cl)cc2)ccc1-n1nc(C(F)(F)F)cc1C` [N-(4-chlorophenyl)-3-methoxy-4-(5-methyl-3-(trifluoromethyl)-1H-pyrazol-1-yl)benzamide], the half-maximal inhibitory concentration (IC50) is < 10 µM.

As to `Cc1cc(C(F)(F)F)nn1-c1ccc(C(=O)Nc2ccccc2Cl)cc1[N+](=O)[O-]` [N-(2-chlorophenyl)-4-(5-methyl-3-(trifluoromethyl)-1H-pyrazol-1-yl)-3-nitrobenzamide], the IC50 was < 10 µM.

On to `COc1ccc(C(=O)Nc2ccc(-n3nc(C)cc3C(F)(F)F)c([N+](=O)[O-])c2)cc1` [4-methoxy-N-(4-(3-methyl-5-(trifluoromethyl)-1H-pyrazol-1-yl)-3-nitrophenyl)benzamide], for which the concentration for half-maximal inhibition (IC50) was < 10 µM.

`CCc1cc(CC)n(-c2ccc(NC(=O)c3ccc(Cl)cc3)cc2[N+](=O)[O-])n1` [4-chloro-N-(4-(3,5-diethyl-1H-pyrazol-1-yl)-3-nitrophenyl)benzamide]: the IC50 is < 10 µM.

In the case of `COc1cc(C(=O)Nc2ccccc2Cl)ccc1-n1nc(C)cc1C(F)(F)F` [N-(2-chlorophenyl)-3-methoxy-4-(3-methyl-5-(trifluoromethyl)-1H-pyrazol-1-yl)benzamide], the IC50 was < 10 µM.

For `Cc1cc(-c2ccccc2)nn1-c1ccc(NC(=O)c2cccs2)cc1N` [N-(3-amino-4-(5-methyl-3-phenyl-1H-pyrazol-1-yl)phenyl)thiophene-2-carboxamide], the IC50 was < 10 µM.

In the case of `Cc1cc(C(F)(F)F)n(-c2ccc(C(=O)Nc3ccccc3Cl)cc2[N+](=O)[O-])n1` [N-(2-chlorophenyl)-4-(3-methyl-5-(trifluoromethyl)-1H-pyrazol-1-yl)-3-nitrobenzamide], the 50% inhibitory concentration (IC50) was < 10 µM.

For the molecule `COc1ccc(C(=O)Nc2ccc(-n3nc(C(F)(F)F)cc3C)c(N)c2)cc1` [N-(3-amino-4-(5-methyl-3-(trifluoromethyl)-1H-pyrazol-1-yl)phenyl)-4-methoxybenzamide], the IC50 was < 10 µM.

Regarding `COc1ccc(C(=O)Nc2ccc(-n3nc(-c4ccccc4)cc3C)c(N)c2)cc1` [N-(3-amino-4-(5-methyl-3-phenyl-1H-pyrazol-1-yl)phenyl)-4-methoxybenzamide], the half-maximal inhibitory concentration (IC50) is < 10 µM.

`COc1ccc(C(=O)Nc2ccc(-n3nc(C)cc3C(F)(F)F)c(N)c2)cc1` [N-(3-amino-4-(3-methyl-5-(trifluoromethyl)-1H-pyrazol-1-yl)phenyl)-4-methoxybenzamide]: the half-maximal inhibitory concentration (IC50) is < 10 µM.

As to `Cc1cc(C(F)(F)F)n(-c2ccc(NC(=O)c3ccc(Cl)cc3)cc2[N+](=O)[O-])n1` [4-Chloro-N-(4-(3-methyl-5-(trifluoromethyl)-1H-pyrazol-1-yl)-3-nitrophenyl)benzamide], the IC50 was < 10 µM.
